For 34 compounds, IC50 results are on record in ChEMBL document CHEMBL5604062, “ASAP - ZIKV NS2B-NS3 protease fluorescence dose response” (2024).

Structures are written as SMILES. “And” between values parts separate entries of the source, which are not always exact repeats. Equal values may be shown once.

In the experiment the target is Nonstructural protein 3 (Zika virus, UniProt A0A024AXB9). In words: Functional biochemical assay to identify treatments for viral infectious disease that targets Zika NS2B-NS3 protease. Utilizing a direct enzyme activity measurement method, reading the fluorescence intensity is used to characterize the relative potency of inhibitors as IC50. Further details: species or system PRVABC59.
Nonstructural protein 3, sequence (A0A024AXB9 whole entry): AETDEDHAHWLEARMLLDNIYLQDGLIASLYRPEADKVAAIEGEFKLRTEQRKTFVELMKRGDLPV

In the case of `O=C(O)c1cc(Cl)ccc1NS(=O)(=O)c1ccc(OCc2ccncc2)cc1`, the IC50 was over 99.5 µM. With `O=C(O)c1cc2c(cc1NS(=O)(=O)c1ccc(F)cc1)CCC2`, the IC50 was over 99.5 µM. The figure for `CCc1ccccc1COc1ccc(S(=O)(=O)Nc2ccc(Cl)cc2C(=O)O)cc1` is 12.6 µM; for `NCc1cccc(NC(=O)C[C@H](NC(=O)OCc2ccccc2)c2ccc(OC(F)(F)F)cc2)c1` it is 33.9 µM and 39.5 µM.

`N[C@]12CCC[C@](C(=O)NCc3ccc4c(c3)CCNCC4)(CC1)C2` came in with an IC50 of over 99.5 µM. Then `NCc1cccc(NC(=O)C[C@H](NC(=O)OCc2ccccc2)c2ccc(Cl)c(Br)c2)c1`, with 20.7 µM and 18.8 µM and 15.9 µM and 15.5 µM; and `CCn1nccc1-c1cccc([C@@H](NC(=O)OCc2ccccc2)C(=O)Nc2cccc(CN)c2)c1`, with over 99.5 µM; and `NCCNC(=O)c1cc(Cl)ccc1NS(=O)(=O)c1ccc(Oc2ccccc2Cl)cc1`, with over 99.5 µM. `O=C(O)c1cc(Cl)ccc1NS(=O)(=O)c1ccc(OCc2nnnn2C2CCC2)cc1`: the IC50 was over 99.5 µM. Then `NCc1cccc(NC(=O)[C@H](NC(=O)OCc2ccccc2)c2ccc(Br)c(Cl)c2)c1`, with 10.9 µM and 8.65 µM and 8.23 µM and 9.33 µM; and `NCc1cccc(NC(=O)[C@H](NC(=O)OCc2ccccc2)c2ccc(Br)c(F)c2)c1`, with 64.4 µM. Then `O=C(O)c1cc(Cl)ccc1NS(=O)(=O)c1ccc(NC2CCNCC2)nc1`, with over 99.5 µM. For the compound `CCn1c(=O)c(N2C[C@H]3C[C@@]3(C(F)F)C2)nc2ccccc21`, the IC50 is over 99.5 µM. The figure for `NCc1cccc(NC(=O)[C@H]2[C@H]3CCCC[C@H]3[C@@H]2NC(=O)OCc2ccccc2)c1` is 94.4 µM; for `Cc1n[nH]cc1CC(=O)N1CCCC12CCN(C(=O)c1ccnc(CO)c1)CC2` it is over 99.5 µM; for `NCc1cccc(NC(=O)C[C@H](NC(=O)OCc2ccccc2)c2ccc(Cl)c(F)c2)c1` it is 71.4 µM. The figure for `CC[C@H]1CN(C(=O)c2ccc(C3(CN)CC3)cc2)Cc2ccccc21` is over 99.5 µM; for `Cn1cnc2c1CN(Cc1ccc3c(c1)CCNCC3)CC2` it is over 99.5 µM.

In the case of `CCn1c(=O)c(N2CC[C@H](N3CCCC3=O)C2)nc2ccccc21`, the IC50 is over 99.5 µM. The figure for `CCn1c(=O)c(N2CC[C@H](c3cnccn3)C2)nc2ccccc21` is over 99.5 µM. The figure for `NCc1cccc(NC(=O)[C@]2(NC(=O)OCc3ccccc3)COc3cc(Br)ccc32)c1` is over 99.5 µM; for `CCn1c(=O)c(N2CC[C@H](c3ccccc3)C2)nc2ccccc21` it is over 99.5 µM; for `CCOC(=O)c1cc(C(=O)N[C@H](C(=O)Nc2cccc(CN)c2)c2ccc(OCc3ccccc3)cc2)n(C)n1` it is 23.7 µM and 23.1 µM. `NCc1cccc(NC(=O)[C@H](NC(=O)c2ccccc2Cl)c2ccc(OCc3ccccc3)cc2)c1`: inhibition was half-maximal at 33.1 µM (IC50). In other words, the double-digit micromolar range. The figure for `NCc1cccc(NC(=O)[C@@H](NC(=O)OCc2ccccc2)c2ccc(OCc3ncccn3)cc2)c1` is 47.9 µM. Then `NCc1cccc(NC(=O)[C@H]2[C@H]3CCCCC[C@H]3[C@H]2NC(=O)OCc2ccccc2)c1`, with 41.3 µM and 51.2 µM and 13 µM and 11.9 µM; and `NCc1cccc(NC(=O)[C@H](NC(=O)OCc2ccccc2)c2ccc(CO)cc2)c1`, with over 99.5 µM; and `NCc1cccc(NC(=O)[C@H](NS(=O)(=O)c2ccc(Oc3ccccc3Cl)cc2)c2ccc(OCc3ccccc3)cc2)c1`, with 65.4 µM. The compound `Cc1ccc([C@H]2[C@H](C)CN2C(=O)c2ccc(C(F)(F)CN)cc2)cc1` gave an IC50 of over 99.5 µM. Compound `NCc1cccc(NC(=O)[C@H]2[C@H]3CCC[C@H]3[C@@H]2NC(=O)OCc2ccccc2)c1` showed an IC50 of over 99.5 µM. Then `NCc1cccc(NC(=O)C[C@H](NC(=O)OCc2ccccc2)c2ccc(C(F)(F)F)cc2)c1`, with 58.3 µM; and `O=C(O)c1c(F)cc(F)cc1NS(=O)(=O)c1ccc(Oc2ccccc2Cl)cc1`, with over 99.5 µM; and `CN(C)CCNC(=O)[C@H](NC(=O)OCc1ccccc1)c1ccc(OCc2ccccc2)cc1`, with over 99.5 µM. Then `NCc1cccc(NC(=O)C[C@H](NC(=O)OCc2ccccc2)C2CCCCC2)c1`, with 83.1 µM and 78.1 µM.
